Reference: patent US11534398B2, “Inhaled preparation of isoglycyrrhizic acid or salt thereof, and use in preparing drugs for treating respiratory system diseases” (priority 2016, dated 2022)
Where “and” joins values, the source holds several entries; their conditions need not be identical. Equal entries are not always repeated. Where two headings read alike, the source gives them in different places. Marks after values point to notes of the source that are not given here.

How the values were obtained:
[1] = Particle size of micronized magnesium isoglycyrrhizinate; type: physicochemical; settings: micronized active ingredient
From the text: The magnesium isoglycyrrhizinate was micronized to obtain samples having the following different particle size ranges.

[2] = tested on: tracheal secretion in mice; experiment: Mouse phenol red excretion assay (tracheal secretion); type: in vivo, ICR mice; settings: 1.0 g/kg/d*6 d, i.g. 6 d
Method: 50 male ICR mice, weighing about 21 g, were randomly divided into 5 groups: control group 1 (normal saline, NS), control group 2 (normal saline, NS), positive control group (ammonium chloride, 1 g/kg), drug group 1 (0.2 mg/ml of magnesium isoglycyrrhizinate liquid preparation for use in nebulizers, nebulizing for 30 min), drug group 2 (0.2 mg/ml of magnesium isoglycyrrhizinate liquid preparation for use in nebulizers, nebulizing for 15 min). The mice in control group 1 and the positive control group were intragastrically administered with the corresponding drugs (0.1 ml/10 g), the mice in control group 2 and the drug group 1 were aerosolizing administered with a nebulizer for 30 min, while the mice in drug group 2 were 15 min. The administration frequency was once a day for 6 consecutive days. Before the 6th administration, the mice were starved for 16-18 hours, only allowed for drinking water. After 30 minutes of administration, i.p. 1% phenol red physiological in saline solution 0.2 ml/10 g was injected and 30 minutes later, the mice were killed by cervical dislocation. […] Among them, each drug group was compared with the control group 2, ^ΔΔp<0.01.

[3] = intravenous, 30.0 mg/kg, cited from earlier work
[4] = Body weight of COPD rats (cigarette smoke inhalation model); type: in vivo, SD rats; settings: in g (unit assumed)
Method: (§1) After modeling chronic obstructive pulmonary disease model induced by cigarette smoke inhalation, male SD rats were randomly divided into 6 groups according to the body weight: high dose tracheal instillation group (1.67 mg/ml of magnesium isoglycyrrhizinate, 100 μl/rat), low dose tracheal instillation group (1.67 mg/ml, 25 μl/rat), aerosolizing inhalation group, model group and blank control group, 10 rats in each group. During the intervention period, except that the control group and the model group were given normal saline, the other groups were successive administered every day, lasted for 15 days. During the administration period, the administration groups continued to be given with smoke stimulation after 30 minutes of administration, and the mental state, breathing, activity, hair luster, weight gain of the rats were recorded every day. 12 hour after the last administration, whole blood was taken from the rat eye for determination of white blood cell count and cell classified comparison. […] The right lung was ligated at the right main branch, and the left lung was lavaged with normal saline 2 ml×3 times. The recovery rate was about 80%. The bronchoalveolar lavage fluid (BALF) was prepared for the determination of white blood cell count and classified comparison (white blood cells, neutrophils, lymphocytes and monocytes). Finally, the right lung of rat was fixed with 10% formalin and HE stained, lung injury was observed under microscope, and pathological lesions were scored. All scores were accumulated, and the average score of each animal in each group was calculated (mean±SD).
(§2) The experimental result data was expressed in the form of mean±SD. One-way ANOVA combined with Post-Hoc (LSD method) was used to analyze the differences between groups. Statistical significance was expressed as a P value of less than 0.05. The model group was compared with the blank control group, #p<0.05, #p<0.01; each administration group of magnesium isoglycyrrhizinate was compared with the model group, *p<0.05, **p<0.01.

COPD rats [5] = experiment: General symptoms of COPD rats (cigarette smoke inhalation model); type: in vivo, SD rats; settings: high dose and low dose tracheal infusion and nebulization, versus model group
Method: as §1, with “The recovery rate was about 80%. The bronchoalveolar lavage fluid (BALF) was prepared for the determination of white blood cell count and classified comparison (white blood cells, neutrophils, lymphocytes and monocytes).” left out

COPD rats [6] = experiment: White blood cell count and cell classified comparison in blood of COPD rats; type: in vivo, SD rats
Method: as §1, §2

COPD rats [7] = experiment: Pathological score of lung of COPD rats (HE staining); type: in vivo, SD rats; design: key to Pathological score, Comprehensive score / Pathological score, Emphysema / Pathological score, Inflammatory cell infiltration / Pathological score, Bronchial mucus secretion: lesion score 0 = none, 0.5 slight … 4 = very severe; group mean±SD
Method: as §1
Scoring indicators: (1) whether there was mucus and cell blockage in the small airway cavity; (2) whether the small airway epithelium had necrotic erosion; (3) small airway epithelial cells goblet cell metaplasia; (4) small airway epithelial cell squamous metaplasia; (5) small airway wall inflammation cell infiltration; (6) small airway wall fibrous connective tissue hyperplasia; (7) small airway wall smooth muscle hyperplasia; (8) small airway wall pigmentation; and (9) lung emphysema. Lesion score: according to the degree from light to heavy lesions, it was quantified as slight or very small amount for “0.5 point”, mild or small amount for “1 point”, moderate or more quantity amount for “2 points”, severe or plenty amount for “3 points”, very severe or large amount for “4 points”, and no obvious lesions for 0 point.
as §2

COPD rats [8] = experiment: White blood cell count and cell classified comparison in BALF of COPD rats; type: in vivo, SD rats
Method: as §1, §2

[9] = Pharmacokinetic evaluation after inhalation/intragastric administration to rats; type: in vivo, SD rats; settings: for Cmax/Dose: in (µg/L)/(mg/kg); for AUC(0-t)/Dose: in (µg·h/L)/(mg/kg); for MRT last: read-out: MRT(0-t); for half-life: read-out: t½ z (converted)
Method: Eight healthy male SD rats, weighing 223-252 g, were fed with standard formula granule feed of rats on time every day. The rats were fasted for 16 h before the experiment, and were refeeded at 4 h after the administration. Drinking water was free before, after and during the experiment. The rats were randomly divided into two groups, 4 rats in each group, and each rat was inhalation administrated with a single dose of magnesium isoglycyrrhizinate liquid preparation for use in nebulizers (2.5 mg/mL) and intragastric administrated with magnesium isoglycyrrhizinate inhaled preparation (5.0 mg/mL, the amount of isoglycyrrhizic acid is 4.486 mg/mL) respectively. Each rat in the inhalation administration group was given 200 μL of magnesium isoglycyrrhizinate liquid preparation for use in nebulizers (the actual dose given to the rat was 2.24-2.49 mg/kg). The dose in the intragastric administration group was 10.0 mg/kg. 0.2-0.3 mL of blood was taken from the fundus venous plexus before administration (0 h) and 0.0833 h, 0.25 h, 0.5 h, 1 h, 2 h, 4 h, 6 h, 8 h, 10 h, 24 h after administration. EDTA-K2 was used for anticoagulation, and the plasma was centrifuged. Then 50 μL was accurately measured, added with 10 μL internal standard solution to vortex and mixed, then added with 200 μL methanol, and mixed in high speed vortex mixer for 3 min, centrifuged for 10 min (4° C., 13000 rpm). The supernatant was collected, and 100 μL thereof was transferred to a 96-well plate. 50 μL of ultrapure water was added, vortexed, LC-MS/MS was used for detection, and the chromatogram was recorded.

[10] = aerosolizing inhalation, 0.4 mg/ml, 30 min
[11] = high dose tracheal instillation, 1.67 mg/ml, 100 μl
[12] = low dose tracheal instillation, 1.67 mg/ml, 25 μl
[13] = male, SD, rat, plasma, inhaled or intranasal, inhalation, 2.4 mg/kg
[14] = male, SD, rat, plasma, po, intragastric, 10 mg/kg

## CC1(C)[C@@H](O[C@H]2O[C@H](C(=O)[O-])[C@@H](O)[C@H](O)[C@H]2O[C@@H]2O[C@H](C(=O)[O-])[C@@H](O)[C@H](O)[C@H]2O)CC[C@]2(C)[C@H]3C(=O)C=C4[C@H]5C[C@@](C)(C(=O)O)CC[C@]5(C)CC[C@@]4(C)[C@]3(C)CC[C@@H]12.[Mg+2] [Large particle size, magnesium isoglycyrrhizinate]
[1]
  X10: 1.47 μm
  X50: 5.75 μm

## CC1(C)[C@@H](O[C@H]2O[C@H](C(=O)[O-])[C@@H](O)[C@H](O)[C@H]2O[C@@H]2O[C@H](C(=O)[O-])[C@@H](O)[C@H](O)[C@H]2O)CC[C@]2(C)[C@H]3C(=O)C=C4[C@H]5C[C@@](C)(C(=O)O)CC[C@]5(C)CC[C@@]4(C)[C@]3(C)CC[C@@H]12.[Mg+2] [Medium particle size, magnesium isoglycyrrhizinate]
[1]
  X10: 1.38 μm
  X50: 5.08 μm

## CC1(C)[C@@H](O[C@H]2O[C@H](C(=O)[O-])[C@@H](O)[C@H](O)[C@H]2O[C@@H]2O[C@H](C(=O)[O-])[C@@H](O)[C@H](O)[C@H]2O)CC[C@]2(C)[C@H]3C(=O)C=C4[C@H]5C[C@@](C)(C(=O)O)CC[C@]5(C)CC[C@@]4(C)[C@]3(C)CC[C@@H]12.[Mg+2] [Small particle size, magnesium isoglycyrrhizinate]
[1]
  X10: 0.58 μm
  X50: 2.03 μm

## Cl.N [ammonium chloride]
[2]
  Amount of phenol red excretion: 0.5924 ± 0.3781 µg/mL

## CC1(C)[C@@H](O[C@H]2O[C@H](C(=O)[O-])[C@@H](O)[C@H](O)[C@H]2O[C@@H]2O[C@H](C(=O)[O-])[C@@H](O)[C@H](O)[C@H]2O)CC[C@]2(C)[C@H]3C(=O)C=C4[C@H]5C[C@@](C)(C(=O)O)CC[C@]5(C)CC[C@@]4(C)[C@]3(C)CC[C@@H]12.[Mg+2] [magnesium isoglycyrrhizinate, magnesium (18α,20β)-20-carboxy-11-oxo-30-norolean-12-ene-3β-yl-2-O-β-D-pyranoglucuronyl-α-D-pyranoglucuronate]
[3]; N = 6, literature
  Cmax: 354.5 µg/mL
[3]; literature
  AUC(0-t): 209.591 µg·h/mL
  AUC(0-t)/Dose: 6986
  AUC(0-∞): 212.295 µg·h/mL
  CLz/F: 141.3 L/h/kg
  Cmax/Dose: 11817
  MRT(0-t): 1.71 h
  Tmax: 5 min
  t1/2 z: 2.06 h
[4]; [10]
  Body weight, End weight: 360.11 ± 18.84**
  Body weight, Initial weight: 319.22 ± 10.43**
[4]; [11]
  Body weight, End weight: 358.20 ± 16.17**
  Body weight, Initial weight: 324.6 ± 12.22**
[4]; [12]
  Body weight, End weight: 350.80 ± 27.79**
  Body weight, Initial weight: 317.60 ± 24.23**
COPD rats [5]
  General symptoms of COPD rats: relieved compared with the model group
COPD rats [6]; [10]
  Neutrophil count: 123.67 ± 23.24** 10/μl
  Percentage of neutrophils: 11.05 ± 1.61** %
  White blood cell count: 1123.33 ± 170.54 10/μl
COPD rats [6]; [11]
  Neutrophil count: 153.25 ± 40.12* 10/μl
  Percentage of neutrophils: 11.31 ± 3.55* %
  White blood cell count: 1395.13 ± 270.32 10/μl
COPD rats [6]; [12]
  Neutrophil count: 155.13 ± 26.25* 10/μl
  Percentage of neutrophils: 13.80 ± 2.24* %
  White blood cell count: 1135.13 ± 155.73 10/μl
COPD rats [7]; [10]
  Pathological score, Bronchial mucus secretion: 0.278 ± 0.363
  Pathological score, Comprehensive score: 0.89 ± 0.65*
  Pathological score, Emphysema: 0.222 ± 0.441
  Pathological score, Inflammatory cell infiltration: 0.389 ± 0.333**
COPD rats [7]; [11]
  Pathological score, Bronchial mucus secretion: 0.050 ± 0.158**
  Pathological score, Comprehensive score: 0.90 ± 0.52*
  Pathological score, Emphysema: 0.300 ± 0.422
  Pathological score, Inflammatory cell infiltration: 0.450 ± 0.550*
COPD rats [7]; high dose, low dose tracheal infusion and aerosolizing inhalation groups
  Lung pathology of COPD rats (in words): significantly reduce lung inflammation, improve bronchial wall function, reduce bronchial mucus secretion and improve emphysema
COPD rats [7]; [12]
  Pathological score, Bronchial mucus secretion: 0.200 ± 0.350
  Pathological score, Comprehensive score: 0.80 ± 0.50*
  Pathological score, Emphysema: 0.150 ± 0.337
  Pathological score, Inflammatory cell infiltration: 0.400 ± 0.394**
COPD rats [8]; [10]
  Neutrophil count: 57.83 ± 20.78 10/μl
  Percentage of neutrophils: 38.83 ± 21.02%
  White blood cell count: 170.33 ± 55.17 10/μl
COPD rats [8]; [11]
  Neutrophil count: 89.88 ± 21.57* 10/μl
  Percentage of neutrophils: 48.89 ± 9.69%
  White blood cell count: 184.38 ± 32.15 10/μl
COPD rats [8]; [12]
  Neutrophil count: 66.38 ± 25.46 10/μl
  Percentage of neutrophils: 38.08 ± 12.86%
  White blood cell count: 172.50 ± 26.52 10/μl
[9]; inhalation, 2.4 mg/kg
  CLz/F: 0.195 L/h/kg and 0.195 ± 0.103 L/h/kg
  t½ z: 2.13 ± 0.69 h
  Cmax/Dose: 1315 and 1315 ± 306
  AUC(0-t)/Dose: 6108 and 6108 ± 2577
[9]; intragastric, 10 mg/kg
  CLz/F: 162 L/h/kg
  Cmax/Dose: 2.73
  AUC(0-t)/Dose: 8.98
[9]; male, SD, rat, inhaled or intranasal, inhalation, liquid preparation for nebulizers 2.5 mg/mL, 200 μL, 2.4 mg/kg, plasma
  Cmax: 3110 ng/mL
[9]; [13]
  AUC(0-inf): 14600 ng·h/mL
  AUC(0-t): 14600 ng·h/mL
  Tmax: 0.81 h
  MRT last: 3.52 h
  half-life: 128 min
[9]; male, SD, rat, plasma, inhaled, inhalation compared with intravenous administration (literature), read-out: Relative F %
  bioavailability: 87%
[9]; [14]
  AUC(0-inf): 102 ng·h/mL
  AUC(0-t): 89.8 ng·h/mL
  Tmax: 1.75 h
  MRT last: 2.35 h
  half-life: 113 min
[9]; male, SD, rat, po, intragastric, 5.0 mg/mL, 10 mg/kg, plasma
  Cmax: 27.3 ng/mL
